Assay results from patent publication US7598237B2 (Wyeth, priority 2004, dated 2009).

System: not given
Experiment: not given
Conditions: not given

Compound	melting point [°C]
CC1(C)OCC(=O)Nc2ccc(-c3cc(F)cc(C#N)c3)cc21 [Compound 3, 3-(5,5-dimethyl-2-oxo-1,2,3,5-tetrahydro-4,1-benzoxazepin-7-yl)-5-fluorobenzonitrile]	238 to 239
Cn1c(C#N)ccc1-c1ccc2c(c1)C(C)(c1cccs1)OCC(=O)N2 (centres unmarked) [Compound 6, 1-Methyl-5-[5-methyl-2-oxo-5-(2-thienyl)-1,2,3,5-tetrahydro-4,1-benzoxazepin-7-yl]-1H-pyrrole-2-carbonitrile]	197 to 198
CCC1(c2cccs2)OCC(=O)Nc2ccc(-c3ccc(F)c(C#N)c3)cc21 (centres unmarked) [Example 139, 5-(5-Ethyl-2-oxo-5-thien-2-yl-1,2,3,5-tetrahydro-4,1-benzoxazepin-7-yl)-2-fluorobenzonitrile]	197 to 199
CCC1(c2cccs2)OCC(=O)Nc2ccc(-c3sc(C#N)cc3C)cc21 (centres unmarked) [Example 140, 5-(5-Ethyl-2-oxo-5-thien-2-yl-1,2,3,5-tetrahydro-4,1-benzoxazepin-7-yl)-4-methylthiophene-2-carbonitrile]	182 to 184
CCC1(c2cccs2)OCC(=O)Nc2ccc(-c3coc(C#N)c3)cc21 (centres unmarked) [Example 141, 4-(5-Ethyl-2-oxo-5-thien-2-yl-1,2,3,5-tetrahydro-4,1-benzoxazepin-7-yl)-2-furonitrile]	99 to 100
CCC1(c2cccs2)OCC(=O)Nc2ccc(-c3csc(C#N)c3)cc21 (centres unmarked) [Example 143, 4-(5-Ethyl-2-oxo-5-thien-2-yl-1,2,3,5-tetrahydro-4,1-benzoxazepin-7-yl)thiophene-2-carbonitrile]	202 to 204

Target: T1, progesterone receptor (PR) (Homo sapiens, UniProt P06401)
T1 construct: effect on alkaline phosphatase activity in T47D cells; endogenous in cells; host or cells: T47D cells
T1 sequence (P06401 1-933): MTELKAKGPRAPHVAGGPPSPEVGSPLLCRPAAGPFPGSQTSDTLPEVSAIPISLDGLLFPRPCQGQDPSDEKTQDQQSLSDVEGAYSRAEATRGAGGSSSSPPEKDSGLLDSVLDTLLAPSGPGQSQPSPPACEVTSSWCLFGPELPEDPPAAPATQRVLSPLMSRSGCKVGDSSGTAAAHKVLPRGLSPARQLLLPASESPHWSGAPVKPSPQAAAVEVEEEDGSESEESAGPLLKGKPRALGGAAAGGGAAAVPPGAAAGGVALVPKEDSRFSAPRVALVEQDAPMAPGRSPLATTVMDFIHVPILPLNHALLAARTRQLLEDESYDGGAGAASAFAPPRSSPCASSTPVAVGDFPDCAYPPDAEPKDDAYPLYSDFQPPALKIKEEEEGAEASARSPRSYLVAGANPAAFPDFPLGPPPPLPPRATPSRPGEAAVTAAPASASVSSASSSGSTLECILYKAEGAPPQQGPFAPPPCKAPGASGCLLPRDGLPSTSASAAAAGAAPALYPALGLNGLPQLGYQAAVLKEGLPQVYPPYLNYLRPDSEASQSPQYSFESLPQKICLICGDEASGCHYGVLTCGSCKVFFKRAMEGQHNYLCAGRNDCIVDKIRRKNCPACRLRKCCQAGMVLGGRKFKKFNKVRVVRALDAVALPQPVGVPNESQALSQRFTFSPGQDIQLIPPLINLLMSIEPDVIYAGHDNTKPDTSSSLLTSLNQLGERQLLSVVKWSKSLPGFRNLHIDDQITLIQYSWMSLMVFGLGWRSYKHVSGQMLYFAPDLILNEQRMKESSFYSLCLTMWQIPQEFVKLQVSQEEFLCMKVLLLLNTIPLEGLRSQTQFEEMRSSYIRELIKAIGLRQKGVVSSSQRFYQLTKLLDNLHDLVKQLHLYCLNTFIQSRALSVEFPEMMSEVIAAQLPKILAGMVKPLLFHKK
Experiment: T47D cell alkaline phosphatase assay
Assay type: cell-based
Conditions: T47D cells; antagonist mode, in the presence of 1 nM progesterone; first TABLE 2; read-out: Alk. Phos. IC50
Description: (4) T47D Cell Alkaline Phosphatase Assay
To identify progestins or antiprogestins by determining a compound's effect on alkaline phosphatase activity in T47D cells.
DMEM:F12 (1:1) (GIBCO, BRL) supplemented with 5% (v/v) charcoal stripped fetal bovine serum (not heat-inactivated), 100 U/ml penicillin, […], and 2 mM GlutaMax (GIBCO, BRL).
I. 0.1 M Tris-HCl, pH 9.8, containing 0.2% Triton X-100
II. 0.1 M Tris-HCl, pH 9.8 containing 4 mM p-nitrophenyl phosphate (Sigma).
Frozen T47D cells were thawed in a 37° C. water bath and diluted to 280,000 cells/ml in culture medium. To each well in a 96-well plate (Falcon, Becton Dickinson Labware), 180 μl of diluted cell suspension was added. Twenty μl of reference or test compounds diluted in the culture medium was then added to each well. […] The cells were incubated at 37° C. in a 5% CO2/humidified atmosphere for 24 hr.
Note: For high throughput screening, one concentration of each compound was tested at 0.3 mg/ml. Based on an average molecular weight of 300 g/mol for the compounds in the library, the concentration was approximately 1 mM. […] Alkaline Phosphatase Enzyme Assay: […]
For reference and test compounds, a dose response curve was generated for dose (X-axis) vs. the rate of enzyme reaction (slope) (Y-axis). […] EC50 or IC50 values were calculated from the retransformed values. […]

Compound	IC50 [nM]
Cn1c(C#N)ccc1-c1ccc2c(c1)C(c1cccs1)(c1cccs1)OCC(=O)N2 [Compound 14, 1-Methyl-5-(2-oxo-5,5-dithien-2-yl-1,2,3,5-tetrahydro-4,1-benzoxazepin-7-yl)-1H-pyrrole-2-carbonitrile]	11.3
CCC1(c2cccs2)OCC(=O)Nc2ccc(-c3ccc(C#N)n3C)cc21 (centres unmarked) [Compound 19, 5-(5-Ethyl-2-oxo-5-thien-2-yl-1,2,3,5-tetrahydro-4,1-benzoxazepin-7-yl)-1-methyl-1H-pyrrole-2-carbonitrile]	14.6
